# From patent publication US11180461B2, “Triazoles as Kv3 inhibitors” (AUTIFONY THERAPEUTICS LIMITED, priority 2012, dated 2021)
# Experiments:
# [1] = system: chinchilla model of acute noise-induced hearing loss; experiment: Chinchilla model of acute noise-induced hearing loss (auditory brainstem response thresholds); type: in vivo; details: 60 mg/kg i.p., doses 12 hours apart, 5 pre- and 5 post-noise; 21 days after noise exposure; p<0.01
# Method: The otoprotective efficacy of COMPOUND X (i.e. the ability to prevent or reduce the development of permanent acute noise-induced hearing loss) was investigated using a chinchilla model of acute noise-induced hearing loss, as follows:
# Subjects comprised male, 3 year old chinchillas (Laniger), 10 animals per group.
# Vehicle (20% Captisol®, 0.5% w/v HPMC K15M and 0.5% w/v Tween-80™) was prepared using autoclaved deionized water not more than one week prior to use. A suspension of COMPOUND X in the vehicle at 10 mg/ml was prepared less than 24 hours prior to administration. COMPOUND X was administered at 60 mg/kg via the intraperitoneal route, with doses 12 hours apart. Five injections were given pre-noise exposure and five post-noise exposure. […]
# Auditory brainstem responses (ABRs) were collected prior to noise exposure and 21 days after noise exposure. […] Thresholds were measured in response to tone-bursts with 1 ms rise/fall and a 0 ms plateau gated by a Blackman envelope and centred at the frequencies of 2, 4, 6 and 8 kHz, presented at 30/s. […]
# The thresholds for ABRs at the four different sound frequencies at day 21 post-noise exposure were compared to the thresholds at baseline, prior to noise exposure in order to determine a threshold shift for each animal. The data were then analysed using a 2-way ANOVA, with treatment and frequency as main factors.
# [2] = system: aged and young Fischer 344 (F344) rats; experiment: Model of central auditory processing deficit: auditory gap detection (gap-induced PPI of startle) in F344 rats; type: in vivo, rat
# Method: The ability of COMPOUND X to improve auditory temporal processing in the rat, was examined using an auditory gap detection procedure in aged female Fischer 344 (F344) rats with an average age of 19.5±1.9 months, and in young F344 rats with an average age of 3 months. COMPOUND X, at doses of 30 or 60 mg/kg, or vehicle were administered via the intraperitoneal route on three test occasions using a crossover design, with an interval of at least 7 days between occasions.
# Hearing thresholds in each rat were determined under anaesthesia using the auditory brainstem response (ABR) prior to the first drug administration. ABRs were recorded using subcutaneous needle electrodes in a sound attenuated chamber using pure tone bursts as stimuli (5 ms duration, frequency range 2-40 kHz).
# The gap detection procedure evaluated the ability of the rats to detect short gaps in background noise by measuring the degree of inhibition that the gap afforded in the animal's startle response to a subsequent loud sound, a phenomenon known as pre-pulse inhibition (PPI). Testing was performed in a sound attenuated chamber. During the testing procedure, the rat was confined to a small wire mesh cage on a motion-sensitive platform. The animal's reflex movements were detected and transduced by a piezoelectric accelerometer. The startle response was evaluated in a 100 ms window beginning at the onset of the startle stimulus (a 110 dB SPL broad-band noise burst of 50 ms duration embedded in a background continuous broad-band noise of 65 dB SPL). Acoustic stimulation was presented via a loudspeaker placed 12 cm above the platform inside the chamber.
# PPI of the startle response was induced by gaps of different durations (5-50 ms) preceding the startle stimulus by 70 ms. The degree of PPI was calculated from the startle response amplitude in the presence of the gap relative to the startle response amplitude in the absence of the gap. A two-way ANOVA with the Bonferroni post-hoc test was used to compare the degree of PPI before and after the drug applications.
# [3] = system: Long Evans adult rats with noise-induced tinnitus; experiment: Model of tinnitus: gap pre-pulse inhibition of acoustic startle in noise-exposed Long Evans rats; type: in vivo, rat
# Method: Twenty Long Evans adult rats were exposed to a unilateral 116 dB, 16 kHz octave-band noise for one hour in order to induce hearing loss and chronic tinnitus. Ten control rats received a sham noise exposure. Approximately thirty days after the noise exposure hearing thresholds were determined for each animal. Animals were then assessed for the presence of tinnitus using a gap pre-pulse inhibition of acoustic startle paradigm similar to that described by Turner J G, Brozoski T J, Bauer C A, Parrish J L, Myers K, Hughes L F, Caspary D M. Behav Neurosci. 2006 February; 120(1):188-95. In this test, rats were placed on a motion sensor that measured the startle amplitude of the animals in response to a sudden loud sound (115-dB SPL, 20-ms duration) emitted by a loudspeaker located in the ceiling of the cage. It is known that a brief, non-startling sound or “pre-pulse”, prior to the startle sound can reduce the startle amplitude, a phenomenon known as pre-pulse inhibition. In the present study, the pre-pulse is substituted by a 50 ms silence gap in a constant sound 100 ms prior to the startle sound. If the gap is perceived by the animal, then then startle response will be inhibited. However, if the animal has tinnitus, then the tinnitus sound may fill the gap and will startle as if there were no gap (reduced or absent gap pre-pulse inhibition). A drug that reduces the tinnitus will therefore restore gap pre-pulse inhibition.
# The pitch of tinnitus is typically in the same range as the hearing loss, which in turn is most marked at the frequencies of the noise trauma. Thus each animal was tested for gap pre-pulse inhibition using gaps in tones of 10, 12.5, 16, 20, and 25 kHz at 60-65 dB SPL. As a control, the animals were also tested with gaps in a broadband sound of the same amplitude. Irrespective of whether the animals have tinnitus, it is unlikely that the tinnitus would fill the gap in the broadband sound, and thus this provides a control for whether the noise-trauma might have affected the gap detection ability of the rats. […]
# Kv3 channels = details: cited from earlier work
Structure (SMILES),permanent threshold shift in ABR [1],"degree of PPI (gap detection) ([2]; aged F344 rats, 30 mg/kg i.p., 30 ms gap duration, p<0.001)","degree of PPI (gap detection) ([2]; aged F344 rats, 30 mg/kg i.p., gap durations of 5, 10, and 15 ms)","degree of PPI (gap detection) ([2]; aged F344 rats, 60 mg/kg i.p., 30 ms gap duration, p<0.001)","degree of PPI (gap detection) ([2]; young F344 rats, 30 mg/kg i.p.)","degree of PPI (gap detection) ([2]; young F344 rats, 60 mg/kg i.p.)","gap pre-pulse inhibition ([3]; animals with evidence of tinnitus, 30 mg/kg i.p. 1-2 hours prior to testing, p<0.05)","gap pre-pulse inhibition ([3]; animals with evidence of tinnitus, 60 mg/kg i.p. 1-2 hours prior to testing, p=0.01)",gap pre-pulse inhibition ([3]; control animals or noise-exposed animals without tinnitus),inhibition of Kv3 channels (Kv3 channels)
"CC[C@@]1(C)NC(=O)N(c2cnc(Oc3ccc(C)c(OC(F)(F)F)c3)nc2)C1=O [COMPOUND X, (5R)-5-ethyl-5-methyl-3-[2-({4-methyl-3-[(trifluoromethyl)oxy]phenyl}oxy)-5-pyrimidinyl]-2,4-imidazolidinedione]",significantly reduced,significantly increased,significant improvement,significantly increased,"tended to increase the degree of PPI, but the increases were not significant","tended to increase the degree of PPI, but the increases were not significant",significantly restored,significantly restored,no effect,
"CC[N+](CC)(CC)CC [Tetraethylammonium (TEA), Tetraethylammonium]",,,,,,,,,,inhibit the channels at low millimolar concentrations
